Assay results taken from patent publication US5449667A, “Amidothiophosphate derivative and insecticide, nematocide and acaricide containing the same as active ingredient” (priority 1993, dated 1995).

Assays:
[1] = Acute toxicity in oral application to mice; details: mouse, in vivo, 5 mg/kg, ICR male mice, after seven days
Method: Biological Test 9 Acute Toxicity in Oral Application to Mice
Each of the present compound was diluted with corn oil to a predetermined concentration. After subjecting the mice to a twenty-hour fasting, 0.1 ml of the diluted solution per 10 g weight was forcibly applied into the stomach of each ICR male 6-week old mouse (weight: 24 to 31 g). The mice were given food and water four hours after the application and thereafter regularly fed and watered, and kept in a cage. After seven days, the mortality was examined for the mice (4 mice/group).

[2] = test system: larvae of Spodoptera litura; test: Insecticidal activity against larvae of Spodoptera litura; type: in vivo; details: 144 h, 4-instar larvae, artificial bait, after six days
Method: Biological Test 1 Insecticidal Activity Against Larvae of Spodoptera litura
Emulsifiable concentrates were prepared for each of the present compounds according to the formulation example 1. Thirteen grams of artificial bait for Spodoptera litura were placed in a polyethylene cup (diameter: 11 cm) and impregnated with 2 ml of the emulsifiable concentrate diluted with water (500 ppm). Ten 4-instar larvae of Spodoptera litura were put in the polyethylene cup. After six days, the mortality of the larvae was examined.

[3] = test system: Musca domestica; test: Insecticidal activity against Musca domestica; type: in vivo; details: 24 h, 0.7 ml of 500 ppm on filter paper, ten female house flies, after one day
Method: Biological Test 4 Insecticidal Activity Against Musca domestica
(§1) Filter paper of 5.5 cm in diameter was laid in the bottom of a polyethylene cup (diameter: 5.5 cm). After 0.7 ml of a 500 ppm aqueous solution obtained by diluting each emulsifiable concentrate prepared from each of the present compounds according to the formulation example 1 was dropped on the filter paper and approximately 30 mg of sucrose was uniformly scattered, and put on the filter paper as bait, ten female house flies (Musca domestica) were left in the cup with a cover. After one day, the mortality was examined for the flies.

[4] = test system: larvae of Diabrotica undecimpunctata; test: Insecticidal activity against larvae of Diabrotica undecimpunctata; type: in vivo; details: 1 ml of 50 ppm on filter paper, approximately thirty eggs, after eight days
Method: Biological Text 5 Insecticidal Activity Against Larvae of Diabrotica undecimpunctata
Filter paper of 5.5 cm in diameter was laid in the bottom of a polyethylene cup (diameter: 5.5 cm). After 1 ml of a 50 ppm aqueous solution obtained by diluting each of the emulsifiable concentrate prepared from each of the present compounds according to the formulation example 1 was dropped on the filter paper and one sprouting corn crop was placed as bait on the paper, approximately thirty eggs of Diabrotica undecimpunctata were left on the filter paper. After eight days, the rate of hatched larvae was examined. The activity were evaluated according to the following criteria:
B: Mortality not less than 90% but less than 100%
C: Mortality less than 90%

[5] = test system: root-knot nematodes; test: Activity against root-knot nematodes; type: in vivo; design: key: -: substantially no root knots; +: several to ten odds root knots; ++: larger number of root knots (heavier damage than +); details: 25 ppm active ingredient in soil, tomato root, after four weeks
Method: Biological Test 6 Activity Against Root-knot Nematodes
One ml of a 500 ppm aqueous solution of each of the present compounds obtained by diluting each emulsifiable concentrate prepared from each of the present compounds according to the formulation example 1 was mixed with 19 g of soil contaminated with root-knot nematodes (concentration of active ingredient in soil: 25 ppm). After the soil was kept at 27° C. for 24 hours, the root of a tomato plant (approximately two weeks after sprouting) in a cup was covered with the soil and some water was given to the plant. After four weeks, damage to the root of the tomato plant was evaluated according to the following criteria:
-: substantially no root knots
+: several to ten odds root knots
++: larger number of root knots (heavier damage than +)

[6] = test system: Blattella germanica; test: Insecticidal activity against Blattella germanica; type: in vivo; details: 24 h, 0.7 ml of 500 ppm on filter paper, ten male cockroaches, after one day
Method: Biological Test 3 Insecticidal Avtivity Against Blattella germanica
as §1, with “scattered” for “scattered,”, “male cockroaches (Blattella germanica)” for “female house flies (Musca domestica)”, “cockroaches.” for “flies.”

[7] = test system: larvae of Culex pipiens pallens; test: Insecticidal activity against larvae of Culex pipiens pallens; type: in vivo; details: 3.5 ppm active ingredient in water, twenty last-instar larvae, after one day
Method: Biological Test 7 Insecticidal Activity Against Larvae of Culex pipiens pallens
Each of emulsifiable concentrates prepared from each of the present compounds according to the formulation example 1 was diluted with water, and 0.7 ml of the diluted solution was added to 100 ml of ion-exchanged water (concentration of active ingredient: 3.5 ppm). Twenty last-instar larvae of Culex pipiens pallens were left in the water. After one day, the activity was evaluated according to the following criteria:
A: Mortality not less than 90%
B: Mortality not less than 10% but less than 90%
C: Mortality less than 10%

[8] = test system: Tetranychus cinnabarinus; test: Activity against Tetranychus cinnabarinus; type: in vivo; design: key: -: substantially no damage; +: little damage; ++: heavy damage; details: 500 ppm, 15 ml spray plus 2 ml soil injection, kidney bean, after eight days
Method: Biological Test 8 Activity Against Tetranychus cinnabarinus
Ten male mites (Tetranychus cinnabarinus) per leaf were placed on a pot-planted kidney bean (Phasseolus vulgaris: seven days after sowing) and kept in a thermostatic chamber. After six days, 15 ml of a 500 ppm aqueous solution obtained by diluting each emulsifiable concentrate of each of the present compounds according to the formulation example 1 was sprayed in a pot simultaneously with injection of 2 ml of the solution into soil. After eight days, damage to the plant by Tetranychus cinnabarinus was evaluated according to the following criteria:
-: substantially no damage

[9] = test system: larvae of Nilaparvata lugens; test: Insecticidal activity against larvae of Nilaparvata lugens; type: in vivo; details: 500 ppm aqueous solution, rice stalk dip, approximately 30 larvae, after six days
Method: Biological Test 2 Insecticidal Activity Against Larvae of Nilaparvata lugens
A stalk of a rice plant was dipped for one minute in a 500 ppm aqueous solution obtained by diluting each emulsifiable concentrate prepared from each of the present compounds according to the formulation example 1 and then air-dried. The rice plant stalk was placed in a polyethylene cup (diameter: 5.5 cm) where filter paper (diameter: 5.5 cm) impregnated with 1 ml of water was put. Approximately 30 larvae of Nilaparvata lugens were put in the polyethylene cup. After six days, the activity was evaluated according to the following criteria:
B: the number of the living larvae is not greater than 5
C: the number of the living larvae is 6 or more

SMILES | mortality at 168 h [1] [%] | mortality at 500 ppm [2] [%] | mortality at 500 ppm [3] [%] | Activity [4] | Activity [5] | mortality at 500 ppm [6] [%] | Activity [7] | Activity [8] | Activity [9]
CCC(C)SP(=O)(NC)OC (stereo not drawn) [A, reference compound] | 100 |  |  |  |  |  |  |  | 
CCCSP(=O)(OC)N(CC#N)C(=O)OC (stereo not drawn) [Compound 1] |  | 100 | 100 | A (Mortality 100%) | - | 100 | A (Mortality not less than 90%) | - | A (no living larvae)
CCCSP(=O)(OC)N(CC#N)C(=O)OCC (stereo not drawn) [Compound 2] |  | 100 | 100 | A (Mortality 100%) | - | 100 | A (Mortality not less than 90%) | - | A (no living larvae)
CCCSP(=O)(OC)N(CC#N)C(=O)OC(C)C (stereo not drawn) [Compound 3] |  | 100 | 100 | A (Mortality 100%) | - | 100 | A (Mortality not less than 90%) | - | A (no living larvae)
CCC(C)SP(=O)(OC)N(CC#N)C(=O)OC (stereo not drawn) [Compound 4] |  | 100 | 100 | A (Mortality 100%) | - | 100 | A (Mortality not less than 90%) | - | A (no living larvae)
CCCSP(=O)(OC)N(CCC#N)C(=O)SC (stereo not drawn) [Compound 5] |  | 100 | 100 | A (Mortality 100%) | - |  |  | - | 
CCOC(=O)N(CC#N)P(=O)(OC)SC(C)CC (stereo not drawn) [Compound 6] |  | 100 | 100 | A (Mortality 100%) | - | 100 | A (Mortality not less than 90%) | - | A (no living larvae)
CCCSP(=O)(OCC)N(CC#N)C(=O)OC (stereo not drawn) [Compound 7] |  | 100 | 100 | A (Mortality 100%) | - | 100 | A (Mortality not less than 90%) | - | A (no living larvae)
CCCSP(=O)(OCC)N(CC#N)C(=O)OCC (stereo not drawn) [Compound 8] |  | 100 | 100 | A (Mortality 100%) | - | 100 | A (Mortality not less than 90%) | - | A (no living larvae)
CCOC(=O)N(CC#N)P(=O)(OCC)SC(C)CC (stereo not drawn) [Compound 10] |  | 100 | 100 | A (Mortality 100%) | - | 100 | A (Mortality not less than 90%) | - | 
CCOP(=O)(SC(C)CC)N(CC#N)C(=O)SC (stereo not drawn) [Compound 11] |  | 100 | 100 | A (Mortality 100%) | - | 100 | A (Mortality not less than 90%) | - | 
CCCSC(=O)N(CC#N)P(=O)(OCC)SC(C)CC (stereo not drawn) [Compound 12] |  | 100 | 100 | A (Mortality 100%) | - | 100 | A (Mortality not less than 90%) | - | 
CCOP(=O)(SC(C)CC)N(CC#N)C(=O)Oc1ccccc1 (stereo not drawn) [Compound 14, O-ethyl S-sec-butyl N-cyanomethyl N-phenoxycarbonyl phosphoroamidothiolate] |  | 100 | 100 | A (Mortality 100%) | - | 100 | A (Mortality not less than 90%) | - | A (no living larvae)
CCC(C)SP(=O)(OC)N(CC#N)C(=O)Oc1ccccc1 (stereo not drawn) [Compound 15] |  |  |  |  |  |  |  | - | 
CCOP(=O)(SC(C)CC)N(CC#N)C(=O)c1ccccc1 (stereo not drawn) [Compound 16] |  | 100 | 100 | A (Mortality 100%) | - | 100 | A (Mortality not less than 90%) | - | A (no living larvae)
CCOP(=O)(SC(C)CC)N(CC#N)C(=O)OC(C)C (stereo not drawn) [Compound 17] |  | 100 | 100 | A (Mortality 100%) | - | 100 | A (Mortality not less than 90%) | - | A (no living larvae)
CCOP(=O)(SC(C)CC)N(CC#N)C(=O)OCC(C)C (stereo not drawn) [Compound 18] |  | 100 | 100 | A (Mortality 100%) | - | 100 | A (Mortality not less than 90%) | - | A (no living larvae)
CCCSC(=O)N(CCC#N)P(=O)(OCC)SC(C)CC (stereo not drawn) [Compound 19] |  |  | 100 | A (Mortality 100%) | - | 100 | A (Mortality not less than 90%) | - | 
CCOC(=O)N(CCC#N)P(=O)(OCC)SC(C)CC (stereo not drawn) [Compound 20] |  | 100 | 100 | A (Mortality 100%) | - | 100 | A (Mortality not less than 90%) | - | 
